What was measured:
[1] = test system: STAT3 and Complex I subunit GRIM-19; assay: Western blot of pSTAT3(Ser727) and GRIM-19 in mitochondrial extracts of lung and heart; format: in vivo, mice
From the text: (§1) Murine model of hemorrhagic shock. The experiments conformed to the Guide for the Care and Use of Laboratory Animals published by the US National Institutes of Health (Eighth edition, 2011) and had the approval of the Institutional Animal Care and Use Committee. Homozygous AMPKα1 wild-type (WT) and AMPKα1 knockout (KO) mice were established on a C57/BL6 genetic background by the crossbreeding (>10 generations) of a breeding pair provided by Dr. Benoit Viollet of the University of Paris Descartes (Paris, France). For these experiments, female AMPKα1 WT and KO mice were generated by a breeding scheme utilizing heterozygous mutant mice. Female mice were used at random stages of the estrous cycle at the age of 3 to 5 months and assigned to the different experimental groups after routine genotyping by quantitative polymerase chain reaction. All mice were allowed free access to water and a maintenance diet in a 12-h light/dark cycle, with room temperature at 21±2° C. Mice were anesthetized with pentobarbital (80 mg/kg) intraperitoneally and prepared for hemorrhagic shock, as previously described. Briefly, either the left or right femoral artery was cannulated using PE-10 tubing, and connected to a blood pressure transducer (PowerLab, AD Instruments, Colorado Springs, CO) for measurement of mean arterial blood pressure (MABP) and heart rate (HR). Blood was removed from the femoral artery over a 10-minute period until MABP reached 30±5 mmHg. The mice were kept in this MABP range for 90 min by additional blood removal or small volume transfusion. At the end of the shock period, mice were resuscitated by infusing their shed blood and twice that amount in Lactated Ringer's solution over a 10-min period. AMPKα1 WT and KO mice were also randomly assigned to two treatment groups: a vehicle group (distilled water, 500 μL) and a humanin-G (100 μg/kg) group. Drug treatment was given intra-arterially as single bolus right before resuscitation, and at 1 and 2 hours thereafter. Dose of humanin was chosen according to reported pharmacokinetics and pharmacodynamics of the drug in the mice. Mice were monitored for 3 hours after resuscitation for cardiovascular parameters. […] Mice were sacrificed at 3 hours after resuscitation and blood, heart and lungs were collected for biochemical assays.
Mitochondrial extracts. Mitochondria were isolated from hearts and lungs using a commercially available mitochondria isolation kit (TermoFisher Scientific, Waltham, MA) and following the protocol recommended by the manufacturer. The Bradford protein assay was used for quantitative determination of total proteins.
Western blot analysis. Cytosol and nuclear content of STAT3 and its two phosphorylated active forms pSTAT3(Tyr705) and pSTAT3(Ser727), and mitochondrial content of pSTAT3(Ser727) and the Complex I subunit GRIM-19 (gene associated with retinoid-IFN-induced mortality) were determined by immunoblotting analyses. Extracts were heated at 70° C. in equal volumes of ×4 Protein Sample Loading Buffer. Twenty μg of protein were loaded per lane on a 10% Bis-Tris gel. Proteins were separated electrophoretically and transferred to nitrocellulose membranes. Immunoblotting was performed using the IBind Flex Western System (Thermo Fischer Scientific, Waltham, MA) that applies sequential lateral flow to perform blocking and antibody binding. […] For all immunoblotting, the Odyssey LI-COR scanner and software (LI-COR Biotechnology, Lincoln, NE) were used for detection and quantitative analysis.

[2] = test system: AMPKα1 wild-type (WT) and knockout (KO) mice; assay: ATP assay in heart tissue after hemorrhagic shock; format: in vivo; conditions: 100 μg/kg intra-arterially, 3 h after resuscitation
From the text: (§2) Murine model of hemorrhagic shock. The experiments conformed to the Guide for the Care and Use of Laboratory Animals published by the US National Institutes of Health (Eighth edition, 2011) and had the approval of the Institutional Animal Care and Use Committee. Homozygous AMPKα1 wild-type (WT) and AMPKα1 knockout (KO) mice were established on a C57/BL6 genetic background by the crossbreeding (>10 generations) of a breeding pair provided by Dr. Benoit Viollet of the University of Paris Descartes (Paris, France). For these experiments, female AMPKα1 WT and KO mice were generated by a breeding scheme utilizing heterozygous mutant mice. Female mice were used at random stages of the estrous cycle at the age of 3 to 5 months and assigned to the different experimental groups after routine genotyping by quantitative polymerase chain reaction. All mice were allowed free access to water and a maintenance diet in a 12-h light/dark cycle, with room temperature at 21±2° C. Mice were anesthetized with pentobarbital (80 mg/kg) intraperitoneally and prepared for hemorrhagic shock, as previously described. […] Mice were monitored for 3 hours after resuscitation for cardiovascular parameters. […]
ATP assay. ATP levels were measured in heart tissue homogenates using a commercially available ATP assay kit (BioVision, Milpitas, CA) and following the protocol recommended by the manufacturer.

[3] = test system: STAT3; assay: Western blot of STAT3, pSTAT3(Ser727), pSTAT3(Tyr705) in cytosol and nuclear extracts of lung and heart; format: in vivo, mice
From the text: as §1
Cytosol and nuclear extracts. Heart and lung tissues were homogenized using a Polytron homogenizer (Brinkman Instruments, West Orange, NY) in a buffer containing 0.32 M sucrose, 10 mM TrisHCl (pH 7.4), 1 mM EGTA, 2 mM EDTA, 5 mM NaN3, 10 mM β-mercaptoethanol, […], 0.15 mM pepstatin A, 0.2 mM phenylmethanesulfonyl fluoride, 50 mM NaF, 1 mM sodium orthovanadate, and 0.4 nM microcystin. Samples were centrifuged at 1,000 g for 10 min at […] and the supernatants collected as cytosol extracts. The pellets were then solubilized in Triton buffer (1% Triton X-100, 250 mM NaCl, 50 mM Tris HCl at pH 7.5, 3 mM EGTA, 3 mM EDTA, 0.1 mM phenylmethanesulfonyl fluoride, 0. 1 mM sodium orthovanadate, 10% glycerol, 2 mM p-nitrophenyl phosphate, 0.5% NP-40, and […]). The lysates were centrifuged at 15,000 g for 30 min at […] and the supernatant collected as nuclear extracts. The Bradford protein assay was used for quantitative determination of total proteins.
Western blot analysis. Cytosol and nuclear content of STAT3 and its two phosphorylated active forms pSTAT3(Tyr705) and pSTAT3(Ser727), and mitochondrial content of pSTAT3(Ser727) and the Complex I subunit GRIM-19 (gene associated with retinoid-IFN-induced mortality) were determined by immunoblotting analyses. Extracts were heated at 70° C. in equal volumes of ×4 Protein Sample Loading Buffer. Twenty μg of protein were loaded per lane on a 10% Bis-Tris gel. Proteins were separated electrophoretically and transferred to nitrocellulose membranes. […]

[4] = test system: AMPKα1 wild-type (WT) and knockout (KO) mice; assay: Lung histopathologic analysis after hemorrhagic shock; format: in vivo; conditions: 100 μg/kg intra-arterially, 3 h after resuscitation
From the text: as §2
Histopathologic analysis. […] Sections were stained with hematoxylin and eosin and evaluated by an independent observer blinded to the treatment groups. […]

[5] = test system: AMPKα1 wild-type (WT) and knockout (KO) mice; assay: Plasma levels of cytokines (multiplex array) after hemorrhagic shock; format: in vivo; conditions: AMPKα1 WT or KO mice; 100 μg/kg intra-arterially; 3 h after resuscitation
From the text: as §2, with “C.” for “C. Mice were anesthetized with pentobarbital (80 mg/kg) intraperitoneally and prepared for hemorrhagic shock, as previously described.”
Plasma levels of cytokines. Plasma levels of interleukin (IL)-1β, IL-6, IL-10, IL-17, keratinocyte-derived chemokine (KC), and tumor necrosis factor-α (TNFα) were evaluated by a commercially available multiplex array system (Linco-Research, St. Charles, MO) using the protocol recommended by the manufacturer.

[6] = test system: AMPKα1 wild-type (WT) and knockout (KO) mice; assay: Murine hemorrhagic shock model: mean arterial blood pressure and heart rate; format: in vivo
From the text: Murine model of hemorrhagic shock. The experiments conformed to the Guide for the Care and Use of Laboratory Animals published by the US National Institutes of Health (Eighth edition, 2011) and had the approval of the Institutional Animal Care and Use Committee. Homozygous AMPKα1 wild-type (WT) and AMPKα1 knockout (KO) mice were established on a C57/BL6 genetic background by the crossbreeding (>10 generations) of a breeding pair provided by Dr. Benoit Viollet of the University of Paris Descartes (Paris, France). For these experiments, female AMPKα1 WT and KO mice were generated by a breeding scheme utilizing heterozygous mutant mice. Female mice were used at random stages of the estrous cycle at the age of 3 to 5 months and assigned to the different experimental groups after routine genotyping by quantitative polymerase chain reaction. All mice were allowed free access to water and a maintenance diet in a 12-h light/dark cycle, with room temperature at 21±2° C. Mice were anesthetized with pentobarbital (80 mg/kg) intraperitoneally and prepared for hemorrhagic shock, as previously described. Briefly, either the left or right femoral artery was cannulated using PE-10 tubing, and connected to a blood pressure transducer (PowerLab, AD Instruments, Colorado Springs, CO) for measurement of mean arterial blood pressure (MABP) and heart rate (HR). Blood was removed from the femoral artery over a 10-minute period until MABP reached 30±5 mmHg. The mice were kept in this MABP range for 90 min by additional blood removal or small volume transfusion. At the end of the shock period, mice were resuscitated by infusing their shed blood and twice that amount in Lactated Ringer's solution over a 10-min period. AMPKα1 WT and KO mice were also randomly assigned to two treatment groups: a vehicle group (distilled water, 500 μL) and a humanin-G (100 μg/kg) group. Drug treatment was given intra-arterially as single bolus right before resuscitation, and at 1 and 2 hours thereafter. […] Mice were monitored for 3 hours after resuscitation for cardiovascular parameters. […]

[7] = test system: AMPKα1 wild-type (WT) and knockout (KO) mice; assay: Lung myeloperoxidase assay (neutrophil infiltration) after hemorrhagic shock; format: in vivo; conditions: 100 μg/kg intra-arterially, 3 h after resuscitation
From the text: as §2, with “C.” for “C. Mice were anesthetized with pentobarbital (80 mg/kg) intraperitoneally and prepared for hemorrhagic shock, as previously described.”
Myeloperoxidase assay. Myeloperoxidase (MPO) activity was determined as an index of neutrophil accumulation. […] The rate of change in absorbance was measured by spectrophotometry at 650 nm. MPO activity was defined as the quantity of enzyme degrading […] of hydrogen peroxide/min at 37° C. and expressed in units per 100 mg weight of tissue.

[8] = test system: AMPKα1 wild-type (WT) and knockout (KO) mice; assay: Transmission electron microscopy of heart tissue mitochondria after hemorrhagic shock; format: in vivo; conditions: 100 μg/kg intra-arterially
From the text: as §2, with “C.” for “C. Mice were anesthetized with pentobarbital (80 mg/kg) intraperitoneally and prepared for hemorrhagic shock, as previously described.”
Transmission electron microscopy. […] The total number of mitochondria, and the presence of abnormal mitochondria with loose matrix, fragmented cristae and membranes were determined in four consecutive cells in four different sections for each animal by using NIH ImageJ analysis.

[9] = test system: AMPKα1 wild-type (WT) and knockout (KO) mice; assay: Plasma levels of humanin by competitive ELISA after hemorrhagic shock; format: in vivo; conditions: 100 μg/kg intra-arterially, 3 h after resuscitation
From the text: as §2
Plasma levels of humanin. Endogenous plasma levels of humanin were measured by competitive ELISA ([…], MyBioSource, San Diego, CA) using the protocol recommended by the manufacturer.

[10] = heart mitochondria, WT or KO mice, compared to vehicle-treated mice
[11] = heart, WT mice, 100 μg/kg intra-arterially
[12] = lung, mice of both genotypes, 100 μg/kg intra-arterially

Substance: [Gly14]-Humanin (MAPRGFSCLLLLTGEIDLPVKRRA) [humanin-G, synthetic humanin analogue, serine at position 14 replaced by glycine]
- mitochondrial expression of GRIM-19 in heart [1, 10]: did not affect
- mitochondrial expression of pSTAT3(Ser727) in heart [1, 10]: did not affect
- mitochondrial expression of pSTAT3(Ser727) in lung ([1]; isolated lung mitochondria, WT and KO mice, 100 μg/kg intra-arterially): slightly, but not significantly, increased
- GRIM-19 expression in lung mitochondria ([1]; KO mice, 100 μg/kg intra-arterially): did not affect
- GRIM-19 expression in lung mitochondria ([1]; WT mice, 100 μg/kg intra-arterially): restored levels of GRIM-19 similarly to basal levels
- cardiac ATP levels [2]: increased
- cytosolic or nuclear expression of pSTAT3(Ser727) in heart [3, 11]: did not affect
- cytosolic or nuclear expression of pSTAT3(Tyr705) in heart [3, 11]: did not affect
- total levels of STAT3 in heart ([3]; heart, across experimental groups, WT or KO mice): no difference
- total levels of STAT3 in lung ([3]; lung, across experimental groups, WT or KO mice): no difference
- pSTAT3(Ser727) in lung cytosol and nucleus [3, 12]: upregulated only in the nucleus
- pSTAT3(Tyr705) in lung cytosol and nucleus [3, 12]: further upregulated
- lung architecture (histology) [4]: significantly improved
- plasma levels of cytokines (IL-1β, IL-6, IL-10, IL-17, KC, TNFα) [5]: did not affect
- MABP recovery to baseline ([6]; AMPKα1 KO mice, 100 μg/kg intra-arterially at resuscitation, 1 h, 2 h): did not completely recover to baseline
- mean arterial blood pressure (MABP) ([6]; AMPKα1 WT and KO female mice, 100 μg/kg intra-arterially at resuscitation and 1 h and 2 h thereafter, compared to vehicle-treated groups): significantly ameliorated
- heart rate (HR) ([6]; AMPKα1 WT or KO mice, 100 μg/kg intra-arterially, compared to vehicle-treated groups): did not affect
- lung MPO activity [7]: significantly reduced
- cardiac mitochondrial damage ([8]; AMPKα1 KO mice, 3 h after resuscitation): reduced
- cardiac mitochondrial structural changes ([8]; AMPKα1 WT mice after hemorrhagic shock): No abnormal structural changes
- plasma humanin levels compared to vehicle-treated groups ([9]; AMPKα1 WT and KO mice): not statistically different
- plasma levels of humanin compared to control mice ([9]; AMPKα1 WT mice, but not KO mice): comparable with levels of control mice
